Data published in ChEMBL document CHEMBL5550177, “Design and synthesis of matrine derivatives for anti myocardial ischemia-reperfusion injury by promoting angiogenesis” (Bioorg Med Chem, 2024).
Active and inactive are the calls of the source. The rule behind the calls is not given here.

What was measured:
[1] = system: H9c2; experiment: Cytotoxicity against rat H9c2 cells assessed as cell viability upto 20 uM incubated for 24 hrs by CCK-8 assay; assay type: toxicity, cell-based; conditions: h9c2, 24 h
[2] = system: Rattus norvegicus; experiment: Cardioprotective activity in myocardial ischemia/reperfusion induced rat injury model assessed as improvement in cardiac injury at 5 to 20 mg/kg, iv pretreated with compound followed by MI/R induction measured after 30 mins by H and E staining based light microscopic analysis; assay type: functional, organism-based; conditions: dose 5-20 mg/kg
[3] = system: Rattus norvegicus; experiment: Cardioprotective activity in myocardial ischemia/reperfusion induced rat injury model assessed as reduction in myocardial fiber disruption at 5 to 20 mg/kg, iv pretreated with compound followed by MI/R induction measured after 30 mins by H and E staining based light microscopic analysis; assay type: functional, organism-based; conditions: dose 5-20 mg/kg
[4] = system: H9c2; experiment: Protection against H/R induced damage in rat H9c2 cells assessed as increase in cell viability at 1 to 20 umol/L preincubated for 2 hrs followed by hypoxic reoxygenation induction by CCK-8 assay; assay type: functional, cell-based; conditions: dose 1-20 µmol/L
[5] = Drug accumulation in rat heart at 5 to 20 mg/kg, iv measured after 2 hrs by HPLC analysis; assay type: ADME, organism-based; conditions: in vivo, dose 5-20 mg/kg
[6] = system: H9c2; experiment: Cardioprotective activity against MI/R induced rat H9c2 cells assessed as upregulation of CREB3L4 protein expression at 5 to 20 uM pretreated with compound followed by MI/R induction by Western blotting assay; assay type: functional, cell-based; conditions: dose 5-20 µM
[7] = system: Rattus norvegicus; experiment: Cardioprotective activity in iv dosed myocardial ischemia/reperfusion induced rat injury model assessed as reduction in serum LDH level pretreated with compound followed by MI/R induction measured after 30 mins; assay type: functional, organism-based; conditions: dose 5-20 mg/kg
[8] = Toxicity in rat assessed as change in organ color at 20 to 100 mg/kg, iv measured after 14 days; assay type: organism-based; conditions: in vivo, 336 h, dose 20-100 mg/kg, time 14 day
[9] = system: Rattus norvegicus; experiment: Cardioprotective activity in myocardial ischemia/reperfusion induced rat injury model assessed as prevention of average femoral artery blood pressure decrease at 5 to 20 mg/kg, iv measured after 30 mins; assay type: functional, organism-based; conditions: dose 5-20 mg/kg
[10] = system: Rattus norvegicus; experiment: Cardioprotective activity in iv dosed myocardial ischemia/reperfusion induced rat injury model assessed as reduction in area of infraction pretreated with compound followed by MI/R induction measured after 30 mins by TTC staining based assay; assay type: functional, organism-based; conditions: dose 5-20 mg/kg
[11] = system: Rattus norvegicus; experiment: Antioxidant activity in myocardial ischemia/reperfusion induced rat injury model assessed as increase in SOD level at 5 to 20 mg/kg, iv pretreated with compound followed by MI/R induction measured after 30 mins; assay type: functional, organism-based; conditions: dose 5-20 mg/kg
[12] = system: H9c2; experiment: Cardioprotective activity against H/R induced damage in rat H9c2 cells assessed as upregulation of CREB3L4 gene expression at 5 to 20 uM by RT-qPCR assay; assay type: functional, cell-based; conditions: dose 5-20 µM
[13] = system: H9c2; experiment: Protection against H/R induced damage in rat H9c2 cells assessed as reduction in LDH level at 20 uM preincubated with compound followed by hypoxic reoxygenation induction; assay type: functional, cell-based
[14] = system: H9c2; experiment: Antioxidant activity against H/R induced damage in rat H9c2 cells assessed as reduction in MDA level at 5 to 20 uM preincubated with compound followed by hypoxic reoxygenation induction; assay type: functional, cell-based; conditions: dose 5-20 µM
[15] = system: H9c2; experiment: Cardioprotective activity against MI/R induced rat H9c2 cells assessed as upregulation of ADCY5 protein expression at 5 to 20 uM pretreated with compound followed by MI/R induction by Western blotting assay; assay type: functional, cell-based; conditions: dose 5-20 µM
[16] = system: H9c2; experiment: Protection against H/R induced necrosis in rat H9c2 cells assessed as reduction in myocardial cell death at 5 to 20 uM preincubated with compound followed by hypoxic reoxygenation induction by Hoechst 33258/PI double staining based fluorescence microscopic analysis; assay type: functional; conditions: dose 5-20 µM
[17] = system: Rattus norvegicus; experiment: Cardioprotective activity in myocardial ischemia/reperfusion induced rat injury model assessed as improvement in damaged ventricular systolic function at 5 to 20 mg/kg, iv measured after 30 mins; assay type: functional, organism-based; conditions: dose 5-20 mg/kg
[18] = system: Rattus norvegicus; experiment: Cardioprotective activity in iv dosed myocardial ischemia/reperfusion induced rat injury model assessed as reduction in serum CK-MB level pretreated with compound followed by MI/R induction measured after 30 mins; assay type: functional, organism-based; conditions: dose 5-20 mg/kg
[19] = system: Rattus norvegicus; experiment: Cardioprotective activity in myocardial ischemia/reperfusion induced rat injury model assessed as improvement in damaged left ventricular systolic pressure at 5 to 20 mg/kg, iv measured after 30 mins; assay type: functional, organism-based; conditions: dose 5-20 mg/kg
[20] = Toxicity in rat assessed as change in organ index at 20 to 100 mg/kg, iv measured after 14 days; assay type: organism-based; conditions: in vivo, 336 h, dose 20-100 mg/kg, time 14 day
[21] = system: Rattus norvegicus; experiment: Antioxidant activity in myocardial ischemia/reperfusion induced rat injury model assessed as decrease in MDA level at 5 to 20 mg/kg, iv pretreated with compound followed by MI/R induction measured after 30 mins; assay type: functional, organism-based; conditions: dose 5-20 mg/kg
[22] = system: H9c2; experiment: Protection against H/R induced damage in rat H9c2 cells assessed as reduction in CK-MB level at 20 uM preincubated with compound followed by hypoxic reoxygenation induction; assay type: functional, cell-based
[23] = system: H9c2; experiment: Cardioprotective activity against H/R induced damage in rat H9c2 cells assessed as upregulation of VEGFA gene expression at 5 to 20 uM by RT-qPCR assay; assay type: functional, cell-based; conditions: dose 5-20 µM
[24] = system: H9c2; experiment: Cardioprotective activity against MI/R induced rat H9c2 cells assessed as upregulation of VEGFA protein expression at 5 to 20 uM pretreated with compound followed by MI/R induction by Western blotting assay; assay type: functional, cell-based; conditions: dose 5-20 µM
[25] = Toxicity in rat assessed as change in organ morphology at 20 to 100 mg/kg, iv measured after 14 days; assay type: organism-based; conditions: in vivo, 336 h, dose 20-100 mg/kg, time 14 day
[26] = system: H9c2; experiment: Cardioprotective activity against H/R induced damage in rat H9c2 cells assessed as reduction in BNP gene expression by RT-qPCR assay; assay type: functional, cell-based; conditions: dose 5-20 µM
[27] = system: H9c2; experiment: Cardioprotective activity against H/R induced damage in rat H9c2 cells assessed as upregulation of ADCY5 gene expression at 5 to 20 uM by RT-qPCR assay; assay type: functional, cell-based; conditions: dose 5-20 µM
[28] = system: H9c2; experiment: Cardioprotective activity against MI/R induced rat H9c2 cells assessed as reduction in BNP protein expression at 5 to 20 uM pretreated with compound followed by MI/R induction by Western blotting assay; assay type: functional, cell-based; conditions: dose 5-20 µM
[29] = system: H9c2; experiment: Cardioprotective activity against MI/R induced rat H9c2 cells assessed as reduction in PP2B protein expression at 5 to 20 uM pretreated with compound followed by MI/R induction by Western blotting assay; assay type: functional, cell-based; conditions: dose 5-20 µM
[30] = system: H9c2; experiment: Cardioprotective activity against H/R induced damage in rat H9c2 cells assessed as reduction in PP2B gene expression by RT-qPCR assay; assay type: functional, cell-based; conditions: dose 5-20 µM
[31] = system: Rattus norvegicus; experiment: Cardioprotective activity in myocardial ischemia/reperfusion induced rat injury model assessed as improvement in damaged left ventricular diastolic pressure at 5 to 20 mg/kg, iv measured after 30 mins; assay type: functional, organism-based; conditions: dose 5-20 mg/kg
[32] = system: Chorioallantoic membrane; experiment: Angiogenesis activity in chicken embryo chorioallantoic membrane assessed as increase in total number of blood vessels incubated for 132 hrs by CAM assay; assay type: functional, tissue-based; conditions: Gallus gallus
[33] = system: H9c2; experiment: Protection against H/R induced necrosis in rat H9c2 cells assessed as reduction in myocardial cell death preincubated with compound followed by hypoxic reoxygenation induction by Hoechst 33258/PI double staining based fluorescence microscopic analysis; assay type: functional; conditions: dose 5-20 µM
[34] = system: H9c2; experiment: Protection against H/R induced damage in rat H9c2 cells assessed as increase in cell viability at 1 to 20 umol/L preincubated for 2 hrs followed by hypoxic reoxygenation induction by CCK-8 assay (reference value: 45.1 +/- 2.1%); assay type: functional; conditions: dose 1-20 µmol/L; at 1 to 20 µM
[35] = system: H9c2; experiment: Antioxidant activity against H/R induced damage in rat H9c2 cells assessed as increase in SOD level preincubated with compound followed by hypoxic reoxygenation induction; assay type: functional, cell-based; conditions: dose 5-20 µM
[36] = system: Rattus norvegicus; experiment: Cardioprotective activity in myocardial ischemia/reperfusion induced rat injury model assessed as prevention of heart rate decrease at 5 to 20 mg/kg, iv measured after 30 mins; assay type: functional, organism-based; conditions: dose 5-20 mg/kg

CCOCCNC(=O)CCC[C@@H]1[C@H]2CCCN3CCC[C@@H](CN1Cc1ccccc1)[C@@H]23
Activity [1]: Non-Toxic

O=C(CCC[C@@H]1[C@H]2CCCN3CCC[C@@H](CN1Cc1ccccc1)[C@@H]23)NCCc1c[nH]c2ccccc12
Activity [1]: Non-Toxic

O=C(CCC[C@@H]1[C@H]2CCCN3CCC[C@@H](CN1Cc1ccccc1)[C@@H]23)NC1CC1
Activity [1]: Non-Toxic

CC(C)NCC(O)COc1ccc(CC(N)=O)cc1 (configuration not stated)
Activity [2]: Active
Activity [3]: Active

O=C(CCC[C@@H]1[C@H]2CCCN3CCC[C@@H](CN1Cc1ccccc1)[C@@H]23)NCCOCCO
Activity [4]: Active

O=C(CCC[C@@H]1[C@H]2CCCN3CCC[C@@H](CN1Cc1ccccc1)[C@@H]23)NCCOCCOC(=O)c1sccc1Cl
Drug uptake [5]: Active
Activity [6]: Active
Activity [7]: Dose-Dependent Effect
Activity [8]: Non-Toxic
Activity [9]: Active
Activity [10]: Dose-Dependent Effect
Activity [2]: Active
Activity [11]: Active
Activity [12]: Active
Activity [13]: Active
Activity [14]: Active
Activity [15]: Active
Activity [16]: Active
Activity [17]: Active
Activity [18]: Dose-Dependent Effect
Activity [19]: Active
Activity [20]: Non-Toxic
Activity [21]: Active
Activity [22]: Active
Activity [23]: Active
Activity [24]: Active
Activity [25]: Non-Toxic
Activity [26]: Dose-Dependent Effect
Activity [27]: Active
Activity [28]: Active
Activity [3]: Active
Activity [29]: Active
Activity [30]: Dose-Dependent Effect
Activity [31]: Active
Activity [32]: Active
Activity [33]: Dose-Dependent Effect
Activity [34]: 93.2%
Activity [35]: Dose-Dependent Effect
Activity [36]: Active

O=C(CCC[C@@H]1[C@H]2CCCN3CCC[C@@H](CN1Cc1ccccc1)[C@@H]23)Nc1cccnn1
Activity [1]: Non-Toxic

O=C(CCC[C@@H]1[C@H]2CCCN3CCC[C@@H](CN1Cc1ccccc1)[C@@H]23)NC1CCCC1
Activity [1]: Non-Toxic

O=C(CCC[C@@H]1[C@H]2CCCN3CCC[C@@H](CN1Cc1ccccc1)[C@@H]23)NCCC1=CC=CCC1=S
Activity [1]: Non-Toxic

O=C1CCC[C@@H]2[C@H]3CCCN4CCC[C@@H](CN12)[C@@H]34 [MATRINE]
Activity [1]: Non-Toxic

O=C(CCC[C@@H]1[C@H]2CCCN3CCC[C@@H](CN1Cc1ccccc1)[C@@H]23)NC1CCC1
Activity [1]: Non-Toxic

O=C(CCC[C@@H]1[C@H]2CCCN3CCC[C@@H](CN1Cc1ccccc1)[C@@H]23)NCCc1ccc(O)cc1
Activity [1]: Non-Toxic

O=C(CCC[C@@H]1[C@H]2CCCN3CCC[C@@H](CN1Cc1ccccc1)[C@@H]23)NC1CCCCC1
Activity [1]: Non-Toxic
